# Source: patent EP2985276A1, “FORMULATIONS BASED ON NANOEMULSIONS AND THE USE THEREOF FOR TREATING OBESITY” (Fundación Pública Andaluza Para La Investigación de Malaga …, priority 2013, dated 2014)
# Tested on: 24 h food-deprived Wistar rats
# Experiment: Acute feeding study: cumulative food intake after i.p. or oral administration
# Type: in vivo
# Procedure: The experiments were performed on male Wistar rats weighing 300-350 g. The animals were housed individually under a 12 h light/dark cycle in a room with temperature and humidity control. The rats had ad libitum access to food and water, except during the feeding studies. Prior to the experiments, animals were acclimated to the handling.
# For the acute feeding studies, the nanoemulsion G-F68 or Tween 20 were prepared in 5% in saline.
# Regarding the acute studies with OEA, the drug was obtained from Tocris Bioscience (Bristol, UK). It was administered in a solution contained the nanoemulsion G-F68 (5%) and saline (95%) prepared in fresh the same day of the experiment. The doses tested were: • a) 1, 5 and 10 mg/kg of OEA for the intraperitoneal acute studies. The volume of the administration was 1 ml/kg. • b) 1, 10 and 50 mg/kg of OEA for the oral acute studies. The volume of the administration was 3 ml/kg.
# The hypophagic actions of the N-acylethanolamine OEA were evaluated using the nanoemulsion G-F68 as delivery system (vehicle). For these experiments, we used animals habituated to the experimental protocols. To this end, 48 h before each experiment, the bedding was removed and replaced by small food containers into the cage for 4 h. After this initial phase, the animals were deprived of food for 24 h, but had free access to water. The different treatments were administered 15 min prior access to food. Animals were then returned to their home cages and a measured amount of food (30-40 g) was placed into the cages (t = 0 h). Food pellets were weighed at time intervals of 15, 30, 60, 120 and 240 min, and 24 h after the acute treatment.
smiles,measurement,setting,value
"CCCCCCCC/C=C\CCCCCCCC(=O)NCCO [OEA, N-oleoylethanolamine]",food intake,"OEA 1 mg/kg oral (i.g., 3 ml/kg) in G-F68, vs G-F68 group, p<0.01 at 240 min",significant decrease in food intake
same,food intake,"OEA 5 mg/kg i.p. in G-F68 (5% in saline), vs nanoemulsion group, p<0.001 at 15 min, p<0.05 at 30 min",significant reduction on food intake
same,food intake,"OEA 10 mg/kg i.p. in G-F68 (5% in saline), vs nanoemulsion group, p<0.001 at 15, 30 and 60 min",significant reduction on food intake
same,food intake,"OEA 10 mg/kg oral (i.g., 3 ml/kg) in G-F68, vs G-F68 group, p<0.05 at 240 min",significant decrease in food intake
same,food intake,"OEA 50 mg/kg oral (i.g., 3 ml/kg) in G-F68, vs G-F68 group, significant at 15, 30, 60, 120, 240 min and 24 h",significant decrease in food intake
same,food intake,"OEA 50 mg/kg oral (i.g., 3 ml/kg) prepared in Tween 20, vs vehicle Tween 20 group, p<0.05",significant decrease in food intake only at 30 and 60 min
same,feeding,"OEA 50 mg/kg oral (i.g., 3 ml/kg) within nanoemulsion G-F68, vs its vehicle group (Figure 7), 15 min to 24 h",prolonged and significant reduction of feeding at all times
same,cumulative food intake,"OEA i.p., the different doses (1, 5, 10 mg/kg) in G-F68, 24 h after administration, vs vehicle group",no effects on cumulative food intake
